What was measured:
[1] = tested on: CYP450; assay: CYP450 inhibition profile; type: in vitro ADME
[2] = biological target: T1, human M4 (Homo sapiens, UniProt P08173); assay: calcium mobilization human M4/Gqi5 assay with EC20 acetylcholine; type: cell-based
T1 sequence (P08173 1-479): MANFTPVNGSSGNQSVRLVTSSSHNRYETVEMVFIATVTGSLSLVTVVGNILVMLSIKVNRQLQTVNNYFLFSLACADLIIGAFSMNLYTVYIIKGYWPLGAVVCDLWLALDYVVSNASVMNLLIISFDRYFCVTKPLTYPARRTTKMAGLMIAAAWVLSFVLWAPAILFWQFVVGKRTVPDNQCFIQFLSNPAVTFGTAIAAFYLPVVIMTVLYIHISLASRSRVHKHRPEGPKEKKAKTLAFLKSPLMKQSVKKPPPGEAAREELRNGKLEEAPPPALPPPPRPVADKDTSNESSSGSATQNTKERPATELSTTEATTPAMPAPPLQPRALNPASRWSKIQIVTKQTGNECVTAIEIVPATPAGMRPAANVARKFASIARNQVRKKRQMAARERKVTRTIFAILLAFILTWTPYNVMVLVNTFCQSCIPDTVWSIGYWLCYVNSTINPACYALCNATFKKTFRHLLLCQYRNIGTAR

[3] = predicted hepatic clearance; type: in vitro ADME; conditions: rat

Compound | IC50 [1] | predicted hepatic clearance CLhep [3] | further results
Cc1nnc2sc3c(NCc4ccc(S(C)(=O)=O)c(F)c4)nn(C)c3c2c1C [30b] | > 30000 nM |  | 
COc1ccc(CNC(=O)c2cc3c(C)c(C)nnc3s2)cc1F [18a] |  |  | loss of potency relative to parent 4 ([2]; des-amino analog vs NH2-bearing 4): ~ 18 fold
COc1ccc(CNc2n[nH]c3c2sc2nc(C)cc(C)c23)cc1 [22a] | < 5000 nM | 66 mL/min/kg | 
Cc1nc2sc3c(NCC4CC4)nn(C)c3c2c(C)c1Cl [27d] |  | > 67 mL/min/kg | 
Cc1nc2sc3c(NCc4ccco4)nn(C)c3c2c(C)c1Cl [27e] |  | > 67 mL/min/kg | 
COc1ccc(CNc2nn(C)c3c2sc2nnc(C)c(C)c23)cc1 [30a] |  | 67.8 mL/min/kg | EC50 [2]: 44 nM
